The values that follow come from ChEMBL document CHEMBL4043102, “Novel 4-acetamide-2-alkylthio-N-acetanilides resembling nimesulide: Synthesis, cell viability evaluation and in silico studies” (Bioorg Med Chem, 2017).

Calls of active or inactive are those of the source. The calls are words filed in the database; no cut-off is given here.

Data set [1] has as its system LNCaP. Put plainly: Antiproliferative activity against human LNCAP cells after 48 hrs by MTT assay. The format is functional, cell-based.
In data set [2] the test system is MCF7. The data set is described as follows: Antiproliferative activity against human MCF7 cells after 48 hrs by MTT assay. The format is functional, cell-based. Particulars: MCF7, 48 h. (In general: Tetrazolium assays rely on reduction of a dye to a coloured formazan, in cell work by metabolically active cells.)
Data set [3] relates to LNCaP. Put plainly: Antiproliferative activity against human LNCAP cells assessed as cell proliferation at 30 uM after 48 hrs by MTT assay relative to control. The class given is functional. The following applies: read-out: Activity.
Data set [4] is described as follows: Antiproliferative activity against NHDF assessed as cell proliferation at 30 uM after 48 hrs by MTT assay relative to control. The format is cell-based. Particulars: human, NHDF cells; read-out: Activity.
Data set [5] has as its system MCF7. Put plainly: Antiproliferative activity against human MCF7 cells assessed as cell proliferation at 30 uM after 48 hrs by MTT assay relative to control. The class given is functional. Particulars: MCF7, 48 h, read-out: Activity.
The test system of data set [6] is MCF7. Put plainly: Induction of apoptosis in human MCF7 cells assessed as reduction in viable cells at 30 uM after 24 hrs by propidium iodide staining based FACS analysis. The class given is functional, cell-based. For orientation: In flow cytometry, cells or beads pass a laser one at a time.
Data set [7] deals with MCF7. The data set is described as follows: Induction of apoptosis in human MCF7 cells assessed as reduction in viable cells at 30 uM after 24 hrs by propidium iodide staining-based microscopic analysis. The class given is functional, cell-based.
For data set [8], the system named is MCF7. Put plainly: Induction of morphological changes in human MCF7 cells assessed as cell rounding at 30 uM after 24 hrs by propidium iodide staining-based microscopic analysis. The class given is functional.
In data set [9] the test system is MCF7. The data set is described as follows: Antiproliferative activity against human MCF7 cells assessed as cell proliferation at 1 mM after 48 hrs by MTT assay relative to control. Particulars: MCF7, 48 h, read-out: Activity.
Data set [10] is described as follows: Antiproliferative activity against NHDF assessed as cell proliferation at 1 mM after 48 hrs by MTT assay relative to control. Particulars: human, NHDF cells.
The subject of data set [11] is LNCaP. Put plainly: Antiproliferative activity against human LNCAP cells assessed as cell proliferation at 1 mM after 48 hrs by MTT assay relative to control. The following applies: read-out: Activity.

A word on the IC50: it is the concentration needed to halve the response being measured. Higher therefore signals weaker potency. For the compound `CC(=O)Nc1ccc(N(CC2CCCCC2)C(C)=O)c(SCc2ccc(C)cc2C)c1`, the IC50 in the data set with LNCaP [1] was found to be 9.71 µM; in the data set with MCF7 [2], 20.8 µM. In addition, the growth at 30 µM in the data set with LNCaP [3] stood at 23%; in the data set with MCF7 [5] it was 9.08%. Also, in data set [4], the viability at 48 h, 30 µM stood at 79.7%.

In the case of `CCCCCCSc1cc([N+](=O)[O-])ccc1N(CCCCCC)C(C)=O`, the growth at 30 µM with LNCaP [3] amounted to 92.3%; with MCF7 [5], 65.9%. In data set [4], the viability at 48 h, 30 µM came out at 111%.

Consider `CCCCCCSc1cc(NC(C)=O)ccc1N(CCCCCC)C(C)=O`, for which, in the data set on MCF7 [2], the IC50 was 24.9 µM. Moreover, the growth at 30 µM turned out to be 73.9% in the data set on LNCaP [3] and 36.6% in the data set on MCF7 [5]. In addition, in [4], the viability at 48 h, 30 µM was 93.6%.

Take `CCOc1ccccc1N(CC)C(C)=O`: in the data set with MCF7 [5], the growth at 30 µM was found to be 93.5%.

In the data set with MCF7 [2], `CCCCCCSc1cc(NC(C)=O)ccc1N(CC1CCCCC1)C(C)=O` returned an IC50 of 21 µM. The values for the growth at 30 µM in the data set with LNCaP [3] and with MCF7 [5] were 49.8% and 24.2%, respectively. The viability at 48 h, 30 µM in data set [4] was determined as 82.8%.

Regarding `CS(=O)(=O)Nc1ccc([N+](=O)[O-])cc1Oc1ccccc1` [NIMESULIDE], the outcome with MCF7 [6] and with MCF7 [7] was Active. In addition, the IC50 was 26.7 µM in the data set on LNCaP [1] and above 100 µM in the data set on MCF7 [2]. Further, the growth at 30 µM turned out to be 73.8% in the data set on LNCaP [3] and 42.5% with MCF7 [5]. Moreover, the viability at 48 h, 30 µM in data set [4] turned out to be 89.3%.

As to `CCN(C(C)=O)c1ccccc1SCc1ccccc1`, in the data set on MCF7 [5], the growth at 30 µM came out at 95.3%.

As for `CC(=O)Nc1ccc(N(CC2CCCCC2)C(C)=O)c(SCC2CCCCC2)c1`, the result in the data set on MCF7 [6] and with MCF7 [8] was Active. In addition, the values for the IC50 in the data set on LNCaP [1] and with MCF7 [2] were 9.16 µM and 16.6 µM, respectively. Moreover, the figures for the growth at 30 µM in the data set on LNCaP [3] and in the data set with MCF7 [5] were 29.7% and 7.52%, respectively. Besides, the viability at 48 h, 30 µM in data set [4] stood at 86.2%.

`CCCCCCN(C(C)=O)c1ccccc1OCCC`: the growth at 30 µM in the data set with MCF7 [5] came out at 51.5%.

As for `CCCCCCSc1cc(NC(C)=O)ccc1N(Cc1ccc(C)cc1C)C(C)=O`, the result with MCF7 [6] and in the data set on MCF7 [8] was Active. Further, the IC50 in the data set on LNCaP [1] came to 13.9 µM; with MCF7 [2], 21.6 µM. Moreover, the figures for the growth at 30 µM in the data set with LNCaP [3] and in the data set on MCF7 [5] were 19.1% and 6.86%, respectively. In addition, the viability at 48 h, 30 µM in [4] turned out to be 80.1%.

In the case of `CC(=O)Nc1ccc(N(Cc2ccc(C)cc2C)C(C)=O)c(SCC2CCCCC2)c1`, the IC50 in the data set on MCF7 [2] is 25.2 µM. The growth at 30 µM with LNCaP [3] was 40.4%; in the data set with MCF7 [5] it was 13.6%. The viability at 48 h, 30 µM in data set [4] came to 80.5%.

Turning to `CCSc1ccccc1N(CC)C(C)=O`, in the data set with MCF7 [5], the growth at 30 µM came to 99.5%.

Take `CCSc1ccccc1N(CC)CC`: in the data set on MCF7 [5], the growth at 30 µM is 99.7%.

Consider `CCCSc1ccccc1N(CC)C(C)=O`, for which, in the data set with MCF7 [5], the growth at 30 µM came to 89.1%.

For `CCN(CC)c1ccccc1SC`, the growth at 30 µM with MCF7 [5] was found to be 97.2%.

Consider `CCCCCCN(C(C)=O)c1ccccc1SCCC`, for which, in the data set on MCF7 [5], the growth at 30 µM amounted to 47.6%.

For the compound `CC(=O)N(Cc1ccccc1)c1ccccc1SCc1ccccc1`, in the data set with MCF7 [5], the growth at 30 µM is 79.8%.

Turning to `CCSc1ccccc1N(Cc1ccccc1C)C(C)=O`, in the data set with MCF7 [5], the growth at 30 µM came out at 77%.

Consider `CC(=O)N(Cc1ccccc1C)c1ccccc1SCc1ccccc1C`, for which the growth at 30 µM with MCF7 [5] stood at 13.7%.

As to `CCCCCCSc1ccccc1N(CC)C(C)=O`, the growth at 30 µM in the data set on MCF7 [5] was determined as 67.7%.

On to `CC(=O)Nc1ccc(N(Cc2ccc(C)cc2C)C(C)=O)c(SCc2ccc(C)cc2C)c1`, for which the IC50 in the data set with MCF7 [2] came to 7.33 µM. Moreover, the figures for the growth at 30 µM in the data set with LNCaP [3] and in the data set with MCF7 [5] were 48% and 15.3%, respectively. In addition, the viability at 48 h, 30 µM in data set [4] came to 89.9%.

Take `CCSc1ccccc1N(Cc1ccccc1)C(C)=O`: in the data set on MCF7 [5], the growth at 30 µM turned out to be 89.4%.

For the compound `CCCOc1ccccc1N(CC)C(C)=O`, the growth at 30 µM in the data set on MCF7 [5] was determined as 92.5%.

Take `CCOc1ccccc1N(Cc1ccccc1)C(C)=O`: the growth at 30 µM in the data set on MCF7 [5] was determined as 87.6%.

For `CCCCCCN(C(C)=O)c1ccc(NC(C)=O)cc1SCC1CCCCC1`, 20.4 µM corresponded to half-maximal inhibition in the data set on MCF7 [2] (IC50). Further, the results for the growth at 30 µM with LNCaP [3] and in the data set with MCF7 [5] were 117% and 35.9%, respectively. The viability at 48 h, 30 µM in data set [4] worked out at 98.2%.

`CCCCCCN(C(C)=O)c1ccc(NC(C)=O)cc1SCc1ccc(C)cc1C` came in with an IC50 with MCF7 [2] of 20.7 µM. The growth at 30 µM in the data set on LNCaP [3] was determined as 88.5%; with MCF7 [5], 11.1%. Further, in data set [4], the viability at 48 h, 30 µM is 83%.

As to `CCCN(C(C)=O)c1ccccc1SC`, the growth at 30 µM in the data set with MCF7 [5] is 95.3%.

Consider `CCCCCCOc1ccccc1N(CC)C(C)=O`, for which the growth at 30 µM in the data set on MCF7 [5] is 55.5%.

For the compound `CCN(C(C)=O)c1ccccc1OCc1ccccc1`, in the data set on MCF7 [5], the growth at 30 µM came to 88.8%.

Take `O=c1[nH]cc(F)c(=O)[nH]1` [FLUOROURACIL]: the outcome in the data set on MCF7 [6] and with MCF7 [7] was Active. Moreover, the 50% inhibitory concentration (IC50) with LNCaP [1] came out at 5.21 µM; with MCF7 [2] it was 3.18 µM. Also, the growth at 30 µM with LNCaP [3] came out at 58.8%; in the data set on MCF7 [5], 28.3%. Moreover, in [4], the viability at 48 h, 30 µM was 86.8%.

Regarding `OO` [HYDROGEN PEROXIDE], the growth at 1000 µM with MCF7 [9] was 4.44%; with LNCaP [11], 2.15%. The viability at 48 h, 1000 µM in data set [10] came out at 15.5%.
